Measurements taken from patent publication US9758527B2, “Cyclohexene derivative, preparation method therefor, and pharmaceutical composition for preventing or treating metabolic diseases, containing same as active ingredient” (HYUNDAI PHARM CO., LTD., priority 2014, dated 2017).
Where a name gives a salt, the structure may show the parent alone. Read-outs that look alike come from different tables or passages of the source.

Target: T1, G protein-coupled receptor 119 (GPR-119) (Mesocricetus auratus, UniProt A0A1U8CD06)
T1 construct: hamster-derived β-cells containing G protein-coupled receptor 119 (GPR-119), HIT-T15 cells; host or cells: HIT-T15 (hamster pancreatic β-cells)
T1 sequence (A0A1U8CD06 1-334): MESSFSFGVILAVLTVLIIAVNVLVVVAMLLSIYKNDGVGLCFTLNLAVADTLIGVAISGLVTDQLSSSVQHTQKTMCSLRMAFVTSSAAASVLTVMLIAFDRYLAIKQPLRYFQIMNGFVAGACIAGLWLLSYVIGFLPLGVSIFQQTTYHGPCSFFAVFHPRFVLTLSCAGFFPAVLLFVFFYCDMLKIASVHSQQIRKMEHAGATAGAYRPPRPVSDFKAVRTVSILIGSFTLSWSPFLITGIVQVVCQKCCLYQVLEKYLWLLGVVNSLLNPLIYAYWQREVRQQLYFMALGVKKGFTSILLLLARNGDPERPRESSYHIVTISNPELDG
Assay: Evaluation of cAMP activity in HIT-T15 cells (HTRF cAMP dynamic kit)
Assay type: cell-based, hamster
Details: cAMP activation
Summary of the method: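 HIT-T15 cells, 60,000/well, treated next day with compound at six concentrations ([…]) for 1 h at 37° C. Lysate cAMP quantified by HTRF competitive immunoassay (D2-cAMP, cryptate anti-cAMP); activity taken as change in FRET signal relative to DMSO.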

[1] = 1 h at 37° C., six concentrations, read-out: EC50

| Compound | EC50 [1] [µM] | EC50 (read-out: EC50 value) [µM] |
| --- | --- | --- |
| CCc1cnc(N2CCC(COc3ccc(C4=CCC(C(=O)N[C@@H](C)CO)CC4)cc3)CC2)nc1 (stereo partly drawn) [Example 127, 4-(4-((1-(5-ethylpyrimidin-2-yl)piperidin-4-yl)methoxy)phenyl)-N-((S)-1-hydroxypropan-2-yl)cyclohex-3-enecarboxamide] | 0.083 | – |
| CCc1cnc(N2CCC(COc3ccc(C4=CCC(C(=O)NC[C@H](O)CO)CC4)cc3)CC2)nc1 (stereo partly drawn) [Example 128, N-((S)-2,3-dihydroxypropyl)-4-(4-((1-(5-ethylpyrimidin-2-yl)piperidin-4-yl)methoxy)phenyl)cyclohex-3-enecarboxamide] | 0.2 | – |
| C[C@H](CO)NC(=O)C1CC=C(c2ccc(OCC3CCN(C(=O)OC(C)(C)C)CC3)cc2F)CC1 (stereo partly drawn) [Example 129, tert-butyl 4-((3-fluoro-4-(4-((R)-1-hydroxypropan-2-ylcarbamoyl)cyclohex-1-enyl)phenoxy)methyl)piperidine-1-carboxylate] | 0.14 | – |
| C[C@@H](CO)NC(=O)C1CC=C(c2ccc(OCC3CCN(C(=O)OC(C)(C)C)CC3)cc2F)CC1 (stereo partly drawn) [Example 130, tert-butyl 4-((3-fluoro-4-(4-((S)-1-hydroxypropan-2-ylcarbamoyl)cyclohex-1-enyl)phenoxy)methyl)piperidine-1-carboxylate] | 0.09 | – |
| CC(C)(C)OC(=O)N1CCC(COc2ccc(C3=CCC(C(=O)NC[C@@H](O)CO)CC3)c(F)c2)CC1 (stereo partly drawn) [Example 131, tert-butyl 4-((4-(4-((R)-2,3-dihydroxypropylcarbamoyl)cyclohex-1-enyl)-3-fluorophenoxy)methyl)piperidine-1-carboxylate] | 0.15 | – |
| CC(C)(C)OC(=O)N1CCC(COc2ccc(C3=CCC(C(=O)NC[C@H](O)CO)CC3)c(F)c2)CC1 (stereo partly drawn) [Example 132, tert-butyl 4-((4-(4-((S)-2,3-dihydroxypropylcarbamoyl)cyclohex-1-enyl)-3-fluorophenoxy)methyl)piperidine-1-carboxylate] | 0.21 | – |
| CC(C)c1noc(N2CCC(COc3ccc(C4=CCC(C(=O)NCC(=O)N5CCC[C@H]5C(N)=O)CC4)cc3F)CC2)n1 (stereo partly drawn) [Example 133, (2S)-1-(2-(4-(3-fluoro-4-((1-(3-isopropyl-1,2,4-oxadiazol-5-yl)piperidin-4-yl)methoxy)phenyl)cyclohex-3-enecarboxamido)acetyl)pyrrolidine-2-carboxamide] | 0.4 | – |
| CC(C)c1noc(N2CCC(COc3ccc(C4=CCC(C(=O)NCCC(=O)N5CCC[C@H]5C(N)=O)CC4)cc3F)CC2)n1 (stereo partly drawn) [Example 134, (2S)-1-(3-(4-(3-fluoro-4-((1-(3-isopropyl-1,2,4-oxadiazol-5-yl)piperidin-4-yl)methoxy)phenyl)cyclohex-3-enecarboxamido)propanoyl)pyrrolidine-2-carboxamide] | 0.35 | – |
| CCc1cnc(N2CCC(COc3ccc(C4=CCC(C(=O)N5CC[C@H](O)C5)CC4)cc3)CC2)nc1 (stereo partly drawn) [Example 135, (4-(4-((1-(5-ethylpyrimidin-2-yl)piperidin-4-yl)methoxy)phenyl)cyclohex-3-enyl)((S)-3-hydroxypyrrolidin-1-yl)methanone] | 0.03 | ≤ 0.05 |
| CCc1cnc(N2CCC(COc3ccc(C4=CCC(C(=O)NC[C@H](C)O)CC4)cc3)CC2)nc1 (stereo partly drawn) [Example 136, 4-(4-((1-(5-ethylpyrimidin-2-yl)piperidin-4-yl)methoxy)phenyl)-N-((S)-2-hydroxypropyl)cyclohex-3-enecarboxamide] | 0.062 | – |
| CC(C)(C)OC(=O)N1CCC(COc2ccc(C3=CCC(C(=O)NC4CC4)CC3)c(F)c2)CC1 (stereo not shown) [Example 137, tert-butyl 4-((4-(4-(cyclopropylcarbamoyl)cyclohex-1-enyl)-3-fluorophenoxy)methyl)piperidine-1-carboxylate] | 0.06 | – |
| CC(C)(C)OC(=O)N1CCC(COc2ccc(C3=CCC(C(=O)NCCF)CC3)c(F)c2)CC1 (stereo not shown) [Example 138, tert-butyl 4-((3-fluoro-4-(4-(2-fluoroethylcarbamoyl)cyclohex-1-enyl)phenoxy)methyl)piperidine-1-carboxylate] | 0.1 | – |
| CC(C)c1noc(N2CCC(COc3ccc(C4=CCC(C(=O)NCCC(=O)N5CCC[C@H]5C#N)CC4)cc3F)CC2)n1 (stereo partly drawn) [Example 140, N-(3-((S)-2-cyanopyrrolidin-1-yl)-3-oxopropyl)-4-(3-fluoro-4-((1-(3-isopropyl-1,2,4-oxadiazol-5-yl)piperidin-4-yl)methoxy)phenyl)cyclohex-3-enecarboxamide] | 0.12 | – |
| CC(C)(C)OC(=O)N1CCC(COc2ccc(C3=CCC(C(=O)NCC(F)F)CC3)c(F)c2)CC1 (stereo not shown) [Example 141, tert-butyl 4-((4-(4-(2,2-difluoroethylcarbamoyl)cyclohex-1-enyl)-3-fluorophenoxy)methyl)piperidine-1-carboxylate] | 0.075 | – |
| CC(C)(C)OC(=O)N1CCC(COc2ccc(C3=CCC(C(=O)NCC(F)(F)F)CC3)c(F)c2)CC1 (stereo not shown) [Example 142, tert-butyl 4-((3-fluoro-4-(4-(2,2,2-trifluoroethylcarbamoyl)cyclohex-1-enyl)phenoxy)methyl)piperidine-1-carboxylate] | 0.085 | – |
| CC(C)c1noc(N2CCC(COc3ccc(C4=CCC(C(=O)N5CC[C@@H](CO)C5)CC4)cc3)CC2)n1 (stereo partly drawn) [Example 149, ((R)-3-(hydroxymethyl)pyrrolidin-1-yl)(4-(4-((1-(3-isopropyl-1,2,4-oxadiazol-5-yl)piperidin-4-yl)methoxy)phenyl)cyclohex-3-enyl)methanone] | 0.023 | ≤ 0.05 |
| CC(C)c1noc(N2CCC(COc3ccc(C4=CCC(C(=O)N5CC[C@H](CO)C5)CC4)cc3)CC2)n1 (stereo partly drawn) [Example 150, ((S)-3-(hydroxymethyl)pyrrolidin-1-yl)(4-(4-((1-(3-isopropyl-1,2,4-oxadiazol-5-yl)piperidin-4-yl)methoxy)phenyl)cyclohex-3-enyl)methanone] | 0.019 | ≤ 0.05 |
| CCc1cnc(N2CCC(COc3ccc(C4=CCC(C(=O)N5CC[C@H](CO)C5)CC4)cc3)CC2)nc1 (stereo partly drawn) [Example 152, (4-(4-((1-(5-ethylpyrimidin-2-yl)piperidin-4-yl)methoxy)phenyl)cyclohex-3-enyl)((S)-3-(hydroxymethyl)pyrrolidin-1-yl)methanone] | 0.036 | ≤ 0.05 |
| CCc1cnc(N2CCC(COc3ccc(C4=CCC(C(=O)N5CC[C@H](CO)C5)CC4)cc3)CC2)nc1 (stereo partly drawn) [Example 158, (4-(4-((1-(5-ethylpyrimidin-2-yl)piperidin-4-yl)methoxy)phenyl)cyclohex-3-enyl)((S)-3-(hydroxymethyl)pyrrolidin-1-yl)methanone hydrochloride] | 0.025 | – |
| CCc1cnc(N2CCC(COc3ccc(C4=CCC(C(=O)N5CC[C@@H](CO)C5)CC4)cc3)CC2)nc1 (stereo partly drawn) [Example 159, (4-(4-((1-(5-ethylpyrimidin-2-yl)piperidin-4-yl)methoxy)phenyl)cyclohex-3-enyl)((R)-3-(hydroxymethyl)pyrrolidin-1-yl)methanone hydrochloride] | 0.02 | ≤ 0.05 |
| CCc1cnc(N2CCC(COc3ccc(C4=CCC(C(=O)N5CC[C@H](F)C5)CC4)cc3)CC2)nc1 (stereo partly drawn) [Example 160, (4-(4-((1-(5-ethylpyrimidin-2-yl)piperidin-4-yl)methoxy)phenyl)cyclohex-3-enyl)((S)-3-fluoropyrrolidin-1-yl)methanone] | 0.014 | ≤ 0.05 |
| CCc1cnc(N2CCC(COc3ccc(C4=CCC(C(=O)N5CC[C@H](F)C5)CC4)cc3)CC2)nc1 (stereo partly drawn) [Example 161, (4-(4-((1-(5-ethylpyrimidin-2-yl)piperidin-4-yl)methoxy)phenyl)cyclohex-3-enyl)((S)-3-fluoropyrrolidin-1-yl)methanone hydrochloride] | 0.006 | – |
| CCc1cnc(N2CCC(COc3ccc(C4=CCC(C(=O)N5CCCC5)CC4)cc3)CC2)nc1 (stereo not shown) [Example 162, (4-(4-((1-(5-ethylpyrimidin-2-yl)piperidin-4-yl)methoxy)phenyl)cyclohex-3-enyl)(pyrrolidin-1-yl)methanone] | 0.027 | ≤ 0.05 |
| CCc1cnc(N2CCC(COc3ccc(C4=CCC(C(=O)N5CCCCC5)CC4)cc3)CC2)nc1 (stereo not shown) [Example 163, (4-(4-((1-(5-ethylpyrimidin-2-yl)piperidin-4-yl)methoxy)phenyl)cyclohex-3-enyl)(piperidin-1-yl)methanone] | 0.007 | ≤ 0.05 |
| CCc1cnc(N2CCC(COc3ccc(C4=CCC(C(=O)N5CCC(O)CC5)CC4)cc3)CC2)nc1 (stereo not shown) [Example 164, (4-(4-((1-(5-ethylpyrimidin-2-yl)piperidin-4-yl)methoxy)phenyl)cyclohex-3-enyl)(4-hydroxypiperidin-1-yl)methanone] | 0.016 | ≤ 0.05 |
| CCc1cnc(N2CCC(COc3ccc(C4=CCC(C(=O)N5CCC(CO)CC5)CC4)cc3)CC2)nc1 (stereo not shown) [Example 165, (4-(4-((1-(5-ethylpyrimidin-2-yl)piperidin-4-yl)methoxy)phenyl)cyclohex-3-enyl)(4-(hydroxymethyl)piperidin-1-yl)methanone] | 0.007 | ≤ 0.05 |
| CCc1cnc(N2CCC(COc3ccc(C4=CCC(C(=O)N5CCCC5)CC4)cc3)CC2)nc1 (stereo not shown) [Example 166, (4-(4-((1-(5-ethylpyrimidin-2-yl)piperidin-4-yl)methoxy)phenyl)cyclohex-3-enyl)(pyrrolidin-1-yl)methanone hydrochloride] | 0.022 | – |
